From US9512117B2 (priority 2010, dated 2016)
Several values for one entry are separate records, joined by “and”; a condition that tells them apart may be missing. Equal values may be shown once.

Key:
[1] = logP by HPLC on reversed-phase columns (C 18), EEC directive 79/831 Annex V.A8; assay type: physicochemical; conditions: LC-MS; for Log P [a] / chromatographic logP: acidic range, pH 2.7, 0.1% aqueous formic acid and acetonitrile; for Log P [b]: neutral range, pH 7.8, 0.001 molar aqueous ammonium hydrogencarbonate and acetonitrile; for chromatographic logP: reversed-phase HPLC column (C18), read-out: Log P [a]
Description: The logP values were measured according to EEC directive 79/831 Annex V.A8 by HPLC (High Performance Liquid Chromatography) on reversed-phase columns (C 18), using the methods below:
^[a] The LC-MS determination in the acidic range is effected at pH 2.7 with 0.1% aqueous formic acid and acetonitrile (contains 0.1% formic acid) as eluents; linear gradient from 10% acetonitrile to 95% acetonitrile.
^[b] The LC-MS determination in the neutral range is effected at pH 7.8 using 0.001 molar aqueous ammonium hydrogencarbonate solution and acetonitrile as eluents; linear gradient from 10% acetonitrile to 95% acetonitrile.
The calibration is effected with unbranched alkan-2-ones (having 3 to 16 carbon atoms) with known logP values (logP values determined on the basis of the retention times by linear interpolation between two successive alkanones).

Phytophthora infestans = assay type: in vivo; conditions: young tomato plants, protective spray, 100 ppm active ingredient, evaluation 7 days after inoculation; 0% = control, 100% = no infection
Plasmopara viticola = assay: Plasmopara test (grapevine) / protective; assay type: in vivo; conditions: young grapevine plants, protective spray, 10 ppm active ingredient, evaluation 6 days after inoculation; 0% = control, 100% = no infection
Description: Plasmopara Test (Grapevine)/Protective
• Solvent: 24.5 parts by weight of acetone • 24.5 parts by weight of dimethylacetamide • Emulsifier: 1 part by weight of alkylaryl polyglycol ether
To produce a suitable active ingredient formulation, 1 part by weight of active ingredient is mixed with the stated amounts of solvent and emulsifier, and the concentrate is diluted with water to the desired concentration.
To test for protective efficacy, young plants are sprayed with the active ingredient formulation at the stated application rate. After the spray coating has dried on, the plants are inoculated with an aqueous spore suspension of Plasmopara viticola and then remain in an incubation cabin at approx. 20° C. and 100% relative air humidity for 1 day. Subsequently, the plants are placed in a greenhouse at approx. 21° C. and approx. 90% air humidity for 4 days. The plants are then moistened and placed in an incubation cabin for 1 day.
Evaluation follows 6 days after the inoculation. 0% means an efficacy which corresponds to that of the control, whereas an efficacy of 100% means that no infection is observed.
In this test, the following inventive compounds show, at an active ingredient concentration of 10 ppm, an efficacy of 70% or more: […]

| SMILES | Log P [a] [1] | Eff. % (Phytophthora infestans) | Log P [b] [1] | Eff. % (Plasmopara viticola) [%] | chromatographic logP [1] |
| --- | --- | --- | --- | --- | --- |
| CC[S+]([O-])Cc1ccccc1C1CC(c2csc(C3CCN(C(=O)Cn4nc(C(F)(F)F)cc4C)CC3)n2)=NO1 (mixture of isomers) [Ex. 36] | 2.53[a] | 100% | – | – | – |
| C=CCOc1cccc(Cl)c1C1CC(c2csc(C3CCN(C(=O)Nc4cc(C)ccc4C)CC3)n2)=NO1 (racemic) [Ex. 42] | 3.98[a]; | 94% | 3.91[b] | 96 | – |
| COc1ccc(C2CC(c3csc(C4CCN(C(=O)Cn5nc(C(F)F)cc5C)CC4)n3)=NO2)c(OCC2CC2)c1 (stereo not shown) [Ex. 27] | 3.5[a] | – | – | – | – |
| C#CCOc1ccccc1C1CC(c2csc(C3CCN(C(=O)Cn4nc(C(F)(F)F)cc4C)CC3)n2)=NO1 (stereo not shown) [Ex. 13] | 3.47[a]; | 89% | 3.37[b] | 100 | – |
| C=CCOc1ccccc1C1CC(c2csc(C3CCN(C(=O)Cn4nc(C)cc4C(F)F)CC3)n2)=NO1 (stereo not shown) [Ex. 18] | 3.42[a]; | 100% | 3.33[b] | 95 | – |
| O=C(Cn1nc(C(F)(F)F)cc1C(F)(F)F)N1CCC(c2nc(C3=NOC(c4ccccc4OCC4CC4)C3)cs2)CC1 (stereo not shown) [Ex. 16] | 4.59[a] | – | – | 96 | – |
| C#CCOc1cc(Cl)ccc1C1CC(c2csc(C3CCN(C(=O)Cn4nc(C(F)F)cc4C)CC3)n2)=NO1 (stereo not shown) [Ex. 20] | 3.37[a]; | – | 3.36[b] | – | – |
| C#CCOc1ccccc1C1CC(c2csc(C3CCN(C(=O)Cn4nc(C)cc4C(F)F)CC3)n2)=NO1 (stereo not shown) [Ex. 29] | 3.03[a] | 100% | – | 100 | – |
| Cc1cc(C(F)(F)F)nn1CC(=O)N1CCC(c2nc(C3=NOC(c4ccccc4C=O)C3)cs2)CC1 (stereo not shown) [Ex. 7, 2-{3-[2-(1-{[5-Methyl-3-(trifluoromethyl)-1H-pyrazol-1-yl]acetyl}piperidin-4-yl)-1,3-thiazol-4-yl]-4,5-dihydro-1,2-oxazol-5-yl}benzaldehyde] | – | 100% | – | 100 | 3.12 |
| Cc1cc(C(F)(F)F)nn1CC(=O)N1CCC(c2nc(C3=NOC(c4ccccc4C[S+](C)[O-])C3)cs2)CC1 (mixture of isomers) [Ex. 35] | 2.34[a] | 100% | – | – | – |
| Cc1cc(C(F)(F)F)nn1CC(=O)N1CCC(c2nc(C3=NOC(c4ccccc4NS(C)(=O)=O)C3)cs2)CC1 (stereo not shown) [Ex. 5, N-(2-{3-[2-(1-{[5-Methyl-3-(trifluoromethyl)-1H-pyrazol-1-yl]acetyl}piperidin-4-yl)-1,3-thiazol-4-yl]-4,5-dihydro-1,2-oxazol-5-yl}phenyl)methanesulphonamide] | – | 95% | – | 84 | – |
| C=CCOc1cccc(C2CC(c3csc(C4CCN(C(=O)Cn5nc(C(F)(F)F)cc5C)CC4)n3)=NO2)c1 (racemic) [Ex. 41] | 3.62[a]; | 98% and 97% | 3.68[b]; | 78 | – |
| C=CCOc1ccccc1C1CC(c2csc(C3CCN(C(=O)Cn4nc(C(F)(F)F)cc4C)CC3)n2)=NO1 (stereo not shown) [Ex. 30] | 3.86[a]; | 97% | 3.73[b] | 100 | – |
| Cc1ccc(Cl)cc1NC(=O)N1CCC(c2nc(C3=NOC(c4cccc(C=O)c4)C3)cs2)CC1 (stereo not shown) [Ex. 2] | 3.05[a] | 100% | – | 100 | – |
| C#CCOc1cccc(C2CC(c3csc(C4CCN(C(=O)Cn5nc(C(F)(F)F)cc5C)CC4)n3)=NO2)c1 (stereo not shown) [Ex. 10] | 3.49[a]; | – | 3.3[b] | – | – |
| COCCOCc1ccccc1C1CC(c2csc(C3CCN(C(=O)Cn4nc(C(F)(F)F)cc4C)CC3)n2)=NO1 (racemic) [Ex. 44] | 3.28[a] | 94% | – | – | – |
| Cc1cc(C(F)(F)F)nn1CC(=O)N1CCC(c2nc(C3=NOC(c4c(F)cccc4C=O)C3)cs2)CC1 (racemic) [Ex. 53] | 3.03[a]; | 98% | 2.95[b] | 100 | – |
| Cc1cc(C(F)(F)F)nn1CC(=O)N1CCC(c2nc(C3=NOC(c4ccccc4CS(C)(=O)=O)C3)cs2)CC1 (racemic) [Ex. 34] | 2.6[a] | 100% | – | 84 | – |
| Cc1cc(C(F)(F)F)nn1CC(=O)N1CCC(c2nc(C3=NOC(c4ccccc4OC(=O)C4CC4)C3)cs2)CC1 (racemic) [Ex. 56] | 3.52[a]; | 89% | 3.41[b] | 98 | – |

| SMILES | Log P [a] [1] | Eff. % (Phytophthora infestans) | Log P [b] [1] | Eff. % (Plasmopara viticola) [%] | chromatographic logP [1] |
| --- | --- | --- | --- | --- | --- |
| Cc1cc(C(F)(F)F)nn1CC(=O)N1CCC(c2nc(C3=NOC(c4cccc(OC(=O)C5CC5)c4)C3)cs2)CC1 (racemic) [Ex. 40] | 3.53[a]; | 100% | 3.47[b] | 85 | – |
| C#CCOc1ccc(F)c(C2CC(c3csc(C4CCN(C(=O)Cn5nc(C(F)(F)F)cc5C)CC4)n3)=NO2)c1F (stereo not shown) [Ex. 8] | – | 100% | – | 100 | – |
| CS(=O)(=O)Nc1ccccc1C1CC(c2csc(C3CCN(C(=O)Cc4cc(C(F)F)ccc4C(F)F)CC3)n2)=NO1 (stereo not shown) [Ex. 4, N-(2-{3-[2-(1-{[2,5-Bis(difluoromethyl)phenyl]acetyl}piperidin-4-yl)-1,3-thiazol-4-yl]-4,5-dihydro-1,2-oxazol-5-yl}phenyl)methanesulphonamide] | – | 95% | – | 95 | 2.81 |
| C#CCOc1cccc(F)c1C1CC(c2csc(C3CCN(C(=O)Cn4nc(C(F)(F)F)cc4C)CC3)n2)=NO1 (stereo not shown) [Ex. 12] | 3.35[a]; | 75% | 3.27[b] | 100 | – |
| C=CCOc1cc(Cl)cc(Cl)c1C1CC(c2csc(C3CCN(C(=O)Cn4nc(C(F)F)cc4C)CC3)n2)=NO1 (stereo not shown) [Ex. 24] | 3.95[a]; | – | 3.97[b]; | – | – |
| C#CCOc1cccc(Cl)c1C1CC(c2csc(C3CCN(C(=O)Cn4nc(C(F)(F)F)cc4C)CC3)n2)=NO1 (stereo not shown) [Ex. 11] | 3.62[a]; | 85% | 3.53[b] | 100 | – |
| C#CCOc1cc(C)ccc1C1CC(c2csc(C3CCN(C(=O)Cn4nc(C(F)F)cc4C)CC3)n2)=NO1 (stereo not shown) [Ex. 23] | 3.23[a]; | – | 3.23[b]; | – | – |
| C=CCOc1cc(C)ccc1C1CC(c2csc(C3CCN(C(=O)Cn4nc(C(F)F)cc4C)CC3)n2)=NO1 (stereo not shown) [Ex. 22] | 3.62[a]; | – | 3.66[b]; | – | – |
| C=CCOc1cccc(Cl)c1C1CC(c2csc(C3CCN(C(=O)Nc4cc(Cl)ccc4C)CC3)n2)=NO1 (racemic) [Ex. 39] | 4.21[a]; | 94% | 4.11[b] | 100 | – |
| Cc1cc(C(F)(F)F)nn1CC(=O)N1CCC(c2nc(C3=NOC(c4ccccc4OCC4CC4)C3)cs2)CC1 (stereo not shown) [Ex. 17] | 4.03[a] | – | – | 92 | – |
| CC#CCOc1cc(OC)ccc1C1CC(c2csc(C3CCN(C(=O)Cn4nc(C(F)F)cc4C)CC3)n2)=NO1 (stereo not shown) [Ex. 15] | 3.28[a] | – | – | – | – |
| C#CCOc1c(F)cccc1C1CC(c2csc(C3CCN(C(=O)Cn4nc(C(F)(F)F)cc4C)CC3)n2)=NO1 (stereo not shown) [Ex. 9] | – | 94% | – | 100 | – |
| C#CCOc1cccc(F)c1C1CC(c2csc(C3CCN(C(=O)Cn4nc(C(F)F)cc4C)CC3)n2)=NO1 (stereo not shown) [Ex. 31] | 2.92[a] | – | – | – | – |
| C#CCOc1cc(Cl)cc(Cl)c1C1CC(c2csc(C3CCN(C(=O)Cn4nc(C(F)F)cc4C)CC3)n2)=NO1 (stereo not shown) [Ex. 21] | 3.66[a]; | – | 3.57[b] | – | – |
| C=CCOc1ccc(F)c(C2CC(c3csc(C4CCN(C(=O)Cn5nc(C(F)(F)F)cc5C)CC4)n3)=NO2)c1F (stereo not shown) [Ex. 19] | – | 98% | – | 98 | – |
| C#CCOc1cc(C)ccc1C1CC(c2csc(C3CCN(C(=O)Cn4nc(C(F)(F)F)cc4C)CC3)n2)=NO1 (stereo not shown) [Ex. 26] | 3.67[a]; | 100% | 3.61[b] | – | – |
| Cc1cc(C(F)F)nn1CC(=O)N1CCC(c2nc(C3=NOC(c4c(F)cccc4OCC4CC4)C3)cs2)CC1 (stereo not shown) [Ex. 28] | 3.44[a] | – | – | – | – |
| O=C(Oc1ccccc1C1CC(c2csc(C3CCN(C(=O)Cn4nc(C(F)(F)F)cc4C(F)(F)F)CC3)n2)=NO1)C1CC1 (stereo not shown) [Ex. 14] | 4.04[a] | – | – | – | – |
